Assay results: PMC3303804, “Inflammation-Associated Nitrotyrosination Affects TCR Recognition through Reduced Stability and Alteration of the Molecular Surface of the MHC Complex” (PLoS ONE, 2012)
Entries after “also recorded” stand apart in the source; their conditions may differ.

Key:
[1] = target: T1, H-2K^b (Mus musculus, UniProt P01901); test: Peptide-MHC binding affinity assay, stabilization of H-2K^b on TAP-deficient RMA-S cells; settings: 5×10^5, peptide overnight (12 hours) 26°C in serum free AIM-V, then 37°C 60 min without peptide, anti-H-2K^b AF6-88.5, flow cytometry, MFI relative to no peptide, repeated three times
T1 sequence (P01901 whole entry, looked up): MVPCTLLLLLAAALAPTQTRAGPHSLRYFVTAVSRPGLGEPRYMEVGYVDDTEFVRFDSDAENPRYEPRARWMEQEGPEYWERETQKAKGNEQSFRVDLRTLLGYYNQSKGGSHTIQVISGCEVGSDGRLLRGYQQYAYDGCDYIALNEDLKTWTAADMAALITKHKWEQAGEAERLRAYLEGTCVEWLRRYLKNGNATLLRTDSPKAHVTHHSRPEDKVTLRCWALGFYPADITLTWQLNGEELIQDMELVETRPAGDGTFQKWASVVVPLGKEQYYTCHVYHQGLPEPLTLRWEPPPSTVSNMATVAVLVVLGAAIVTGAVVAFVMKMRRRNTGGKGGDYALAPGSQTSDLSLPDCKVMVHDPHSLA

[2] = target: T1, H-2K^b; test: MHC complex stability, circular dichroism thermal denaturation; assay type: binding; settings: for Tm (melting temperature): soluble H-2K^b/peptide complex, CD 218 nm, 30-75°C, 48°C/hour, 20 mM K2HPO4/KH2PO4 pH 7.5, protein 0.15 to 0.25 mg/ml, Tm at 50% denaturation
[3] = target: T1, H-2K^b; test: MHC complex stability, Thermofluor (differential scanning fluorimetry); assay type: binding; settings: H-2K^b/peptide complex 0.25 mg/mL, 10 mM Na^+ HEPES pH 7.3, 150 mM NaCl, SYPRO Orange, 20 to 95°C at 1°C/min; maximum of first derivative; average of three distinct melting curves
Method: Differential scanning fluorimetry experiments were carried out using an iQ5 real-time PCR detection system (Bio-Rad). 96-well PCR plates were filled with 23 µl of MHC solution (0.25 mg/mL) in 10 mM Na^+ HEPES buffer (pH 7.3), 150 mM NaCl per well. Finally, the fluorophore (2 µl of 125× SYPRO Orange (Sigma S5692)) was added to each well and the plate was sealed with optical sealing tape (Bio-Rad). An iQ5 Real-Time PCR Detection System, calibrated with External Well factor solution was used to monitor the changes in fluorescence intensity of the fluorophore. The temperature of the samples was changed from 20 to 95°C at a heating rate of 1°C/min and the fluorescence was recorded every 0.2°C. The melting temperature (Tm) of each melting curve was calculated as the maximum of the first derivative of the curve. The average Tm value of each protein was determined from three distinct melting curves.

[4] = test system: T cell hybridoma 24H1; design: method as in PMID 18424715; settings: cited from earlier work; for recognition by T cell hybridoma 24H1: H-2K^b/peptide or H-2K^b+ target cells coated with peptide
[5] = test system: T cell hybridoma 4C8; settings: H-2D^b context; 4C8 is H-2D^b/NY-gp33-specific; cited from earlier work
Text: A significant amount of the overall CD8^+ T cell response to LCMV is dominated by very few viral epitopes, comprising the H-2D^b-and H-2K^b- restricted peptide gp33–41 (hereafter referred to as gp33; […]) and the H-2K^b-restricted peptide gp34–41 (gp34; […]), [39]. Both gp33 and gp34 contain a single tyrosine residue at positions ...

[6] = average of at least two independent measurements, value ± spread printed in Figure 4B
[7] = average of at least two measurements from two independent refolding assays

## AV-p3NY-NFATM [NY-gp34, nitrotyrosinated gp34, AV-p3NY-NFATM]
[1]
  binding affinity to H-2K^b (cell surface stabilization): significantly reduced binding affinity; also recorded: significantly reduced when compared to gp33 and gp34
[2]; CD thermal denaturation, compared to gp34
  capacity to stabilize H-2K^b complexes: considerably reducing the stability; also recorded: significantly reduced when compared to gp34; also recorded: significantly reduced capacity
[2]; CD, pH 7.5, lower than for H-2K^b/gp34 (nearly)
  decrease in Tm of H-2K^b/NY-gp34 versus H-2K^b/gp34: ~10 °C
[2]; [6]
  Tm (melting temperature): 47.3 ± 0.1
[2]; [7]
  Tm (melting temperature): 47.3 °C
[3]
  Tm (melting temperature): 44.5±0.2
[4]; H-2K^b context
  relative level of recognition by 24H1, NY-gp34 versus NY-gp33: to a higher level when compared to H-2K^b/NY-gp33
[4]
  recognition by T cell hybridoma 24H1: recognized; also recorded: responded to stimulation

## AVYNFATM [gp34]
[2]; [6]
  Tm (melting temperature): 56.7 ± 0.1
[2]; [7]
  Tm (melting temperature): 56.7 °C
[3]
  Tm (melting temperature): 54.4±0.1
[4]
  recognition by T cell hybridoma 24H1: did not recognize

## KAVYNFATM [gp33]
[4]
  recognition by T cell hybridoma 24H1: did not recognize
[5]
  recognition by T cell hybridoma 4C8: did not recognize
